Experimental data reported in patent EP3202813A1, “CURABLE COMPOSITION AND MOLDED ARTICLE COMPRISING THE COMPOSITION” (Telene SAS, priority 2016, dated 2017).

Experiment: Half-life t1/2CT of radical generators, calculated by Arrhenius formulae from supplier data
Type: physicochemical
From the text: The half-life of the radical generators used in the compositions for different curing temperatures CT have been calculated by using the well-known formulae given below and data obtained by the supplier of the radical generators (AkzoNobel) (Tables 1-4) kd = A⋅e^(−Ea/RT) [formula] t½ = (ln2)/kd [formula] • Ea = 127.52 kJ/mole • A = 7.59E+13 s^-1 • R = 8.3142 J/mole·K • T = (273.15+°C) K Table 1: The half-life t1/2CT of Trigonox 29C at different curing temperatures CT
kd = A⋅e^(−Ea/RT) [formula] t½ = (ln2)/kd [formula] • Ea = 124.90 kJ/mole • A = 1.54E+14 s^-1 • R = 8.3142 J/mole·K • T = (273.15+°C) K Table 2: The half-life t1/2CT of Trigonox 21S at different curing temperatures CT
kd = A⋅e^(−Ea/RT) [formula] t½ = (ln2)/kd [formula] • Ea = 140.78 kJ/mole • A 1.94E+15 s^-1 • R = 8.3142 J/mole·K • T =(273.15+°C) K Table 3: The half-life t1/2CT of Trigonox 42S at different curing temperatures CT
kd = A⋅e^(−Ea/RT) [formula] t½ = (ln2)/kd [formula] • Ea = 153.46 kJ/mole • A = 4.20E+15 s^-1 • R = 8.3142 J/mole·K • T = (273.15+°C) K Table 4: The half-life t1/2CT of Trigonox B at different curing temperatures CT

## CC(C)(C)OOC(C)(C)C [Trigonox B, tert-butyl peroxide]
T 80 °C
  t1/2: 2291.85 h
  t1/2 (h): 2291,8 h
  t1/2 (min): 137511,0 min
T 90 °C
  t1/2: 543.4131 h
  t1/2 (h): 543,4 h
  t1/2 (min): 32604,8 min
T 95 °C
  t1/2: 272.481 h
  t1/2 (h): 272,5 h
  t1/2 (min): 16348,8 min
T 100 °C
  t1/2: 139.18 h
  t1/2 (h): 139,2 h
  t1/2 (min): 8350,8 min
T 105 °C
  t1/2: 72.3653 h
  t1/2 (h): 72,4 h
  t1/2 (min): 4341,9 min
T 110 °C
  t1/2: 38.2736 h
  t1/2 (h): 38,3 h
  t1/2 (min): 2296,4 min
T 120 °C
  t1/2: 11.239 h
  t1/2 (h): 11,2 h
  t1/2 (min): 674,4 min
T 130 °C
  t1/2: 3.5075 h
  t1/2 (h): 3,5 h
  t1/2 (min): 210,4 min
T 150 °C
  t1/2: 0.4028 h
  t1/2 (h): 0,4 h
  t1/2 (min): 24,2 min
T 190 °C
  t1/2: 0.00944 h
  t1/2 (h): 0,01 h
  t1/2 (min): 0,6 min
